Assay results as given in patent US12421276B2 (priority 2016, dated 2025).
Where “and” joins values, the source holds several entries; their conditions need not be identical. Equal values may be shown once. Read-outs that look alike come from different tables or passages of the source. Where a SMILES comes first, the peptide text is derived from it. [ ]: non-standard residue; d: D form. The star is where a group is joined. ξ: configuration not given here. ξpY = NC(Cc1ccc(OP(=O)(O)O)cc1)C(=O)O; Ile(3ξ) = CCC(C)[C@H](N)C(=O)O; Hexanoyl = CCCCCC(=O)*; Ahx = NCCCCCC(=O)O

Tests used:
[1] = Plasma stability study, human plasma; assay type: in vitro ADME; conditions: Human plasma, 1 μM, 37° C.
Method: (§1) Human and rat plasma (K2 EDTA) were obtained from Bioreclamation.
(§2) Compounds were dissolved as 0.3 mM DMSO stocks. Compounds were transferred to the plasma at 1 μM on a 96-well deep well plate. After mixing, samples were transferred to several 96-well plates (25 μL/well), and incubated at 37° C. The extent of metabolism was calculated as the disappearance of the test compound, compared to the 0-min control reaction incubations. Propantheline was included as a positive control to verify assay performance.
(§3) At each of the time points, 150 μL of quench solution (50% acetonitrile, 50% methanol with 0.05% formic acid) with internal standard (bucetin for positive ESI mode and warfarin for negative ESI mode) was transferred to each well. Plates were sealed and centrifuged at 4° C. for 15 minutes at 4000 rpm. The supernatant was transferred to fresh plates for LC/MS/MS analysis.
(§4) Elution conditions are detailed in the table below.
(§5) Initial rates of the clearance of test compounds were calculated using linear regression of semi-log plot of % remaining of compounds versus time. The elimination rate constant (equals to −slope) of the linear regression was then used to determine t½ values.

[2] = assay type: in vivo, rat
Method: • 1. Eight (8) male JVC SD rats (purchased from Charles River Lab) were monitored daily for body condition and health status during the 3-5 days acclimation period. The rats were randomly assigned into […] (n=4). • 2. […] The dosed rats were individually placed into a metabolic cage, and have access to food and water at all times. The urine from each rat was collected daily from the metabolic cages, and kept in dry ice. • 4. At predose (0 min), 5 min, 15 min, 30 min, 1 hr, 2 hr, 8 hr, and 24 hr post dosing, approximately 200 ul blood samples were collected from each rat and transferred to EDTA tubes. • 5. The blood samples in EDTA vials were centrifuged at 4° C. and 6,000 rpm for 10 minutes to generate ˜100 μl of plasma per sample. Blood samples were processed as quickly as possible and remain no longer than 2 min at room temperature and no longer than 15 minutes at 4° C. prior to processing. • 6. All samples were transferred for bioanalytic assay using LCMS

[3] = Metabolic stability in simulated intestinal fluid (SIF), pH 6.8, with or without pancreatin; assay type: in vitro ADME; conditions: 5 μM, 37° C.; for half-life: simulated gi fluid
Method: (§6) Metabolic Stability in SIF and SGF (Simulated Intestinal and Gastric Fluid)
Buffer 3=SIF without enzyme
Buffer 4=SIF with 1% pancreatin
(§7) SIF was prepared freshly with 8.7 mM NaOH, 28.65 mM NaH2PO4, 105.85 mM NaCl, with a final pH of 6.8. SGF was prepared freshly with 34.2 mM NaCl, with a final pH of 1.2. Enzymes such as pepsin or pancreatin were added to some buffers. Human and rat plasma (K2 EDTA) were purchased from BioreclamationIVT.
(§8) Compounds were dissolved as 1.5 mM DMSO stocks. Compounds were transferred to SIF, SGF, or plasma at 5 μM on a 96-well deep well plate. After mixing, samples were transferred to several 96-well plates (25 μL/well), and incubated at 37° C. The extent of metabolism was calculated as the disappearance of the test compound, compared to the 0-min control reaction incubations. Candesartan Cilexetil and omeprazole were included as positive controls for SIF and SGF, respectively, to verify assay performance.
as §3, with “(100% acetonitrile” for “(50% acetonitrile, 50% methanol”, “0.1%” for “0.05%”
as §4, §5

[4] = Metabolic stability in simulated gastric fluid (SGF), pH 1.2, with or without pepsin; assay type: in vitro ADME; conditions: 5 μM, 37° C.; for half-life: simulated gi fluid
Method: as §6
Buffer 1=SGF without enzyme
Buffer 2=SGF with 0.32% pepsin
as §7, §8
as §3, with “(100% acetonitrile” for “(50% acetonitrile, 50% methanol”, “0.1%” for “0.05%”
as §4, §5

[5] = Plasma stability study, rat plasma; assay type: in vitro ADME; conditions: Rat plasma, 1 μM, 37° C.
Method: as §1, §2, §3, §4, §5

Caco-2 cells = test: Caco-2 permeability study with or without P-gp inhibitor GF120918; conditions: for Caco-2 Cells Permeability Recovery Rate: 1 hr, pH 7.4
[6] = rat, dosed as prodrug, 10 mg/kg equivalent of Base Structure, analyte Parent (Base Structure), Average
[7] = rat, dosed as prodrug, 10 mg/kg equivalent of Base Structure, analyte Parent (Base Structure), Combined (average ± std. dev.)
[8] = rat, dosed as prodrug, 10 mg/kg equivalent of Base Structure, analyte Parent (Base Structure), individual animals, 10 mg/kg
[9] = rat, dosed as prodrug, 10 mg/kg equivalent of Base Structure, analyte Prodrug, Average
[10] = rat, dosed as prodrug, 10 mg/kg equivalent of Base Structure, analyte Prodrug, Combined (average ± std. dev.)
[11] = rat, dosed as prodrug, 10 mg/kg equivalent of Base Structure, analyte Prodrug, individual animals
[12] = Rat, PO, 10 mg/kg equiv., n = 4, analyte: Parent (BASE STRUCTURE)

## CCCCCC(=O)N1C(Cc2ccc(OP(=O)([O-])[O-])cc2)C(=O)N(C(C(=O)NCCCCCC(N)=O)C(C)CC)C12CCN(C)CC2.[Na+].[Na+] (centres unmarked) [Compound 2]
[1]
  half-life: 7.08 h
[1]; 0 min
  Plasma Stability (% Parent Remaining) 0 min: 100%
[1]; 60 min
  Plasma Stability (% Parent Remaining) 60 min: 113%
[1]; 120 min
  Plasma Stability (% Parent Remaining) 120 min: 90%
[1]; 240 min
  Plasma Stability (% Parent Remaining) 240 min: 72%
[2]; [6]
  Cl/F_obs: 0.2421 (mg/kg)/(ng/ml)/h
  Vz/F_obs: 6.571 (mg/kg)/(ng/ml)
[2]; [7]
  Cl/F_obs: 0.2 ± 0.1 (mg/kg)/(ng/ml)/h
  Vz/F_obs: 6.6 ± 6.9 (mg/kg)/(ng/ml)
[2]; [8]
  Cl/F_obs: 0.1263 (mg/kg)/(ng/ml)/h and 0.2902 (mg/kg)/(ng/ml)/h and 0.3099 (mg/kg)/(ng/ml)/h
  Vz/F_obs: 0.6603 (mg/kg)/(ng/ml) and 4.961 (mg/kg)/(ng/ml) and 14.09 (mg/kg)/(ng/ml)
[2]; [9]
  AUMC 0-inf_obs: 0 ng/ml * h^2
  Cl/F_obs: 0 (mg/kg)/(ng/ml)/h
  Lambda_z: 0 h⁻¹
  Tlag: 0 h
  Tmax: 0 h
  Vz/F_obs: 0 (mg/kg)/(ng/ml)
[2]; [10]
  AUMC 0-inf_obs: 0 ng/ml * h^2
  Cl/F_obs: 0 (mg/kg)/(ng/ml)/h
  Lambda_z: 0 h⁻¹
  Tlag: 0 h
  Tmax: 0 h
  Vz/F_obs: 0 (mg/kg)/(ng/ml)
[2]; [11]
  AUMC 0-inf_obs: 0 ng/ml * h^2
  Cl/F_obs: 0 (mg/kg)/(ng/ml)/h
  Lambda_z: 0 h⁻¹
  Tlag: 0 h
  Tmax: 0 h
  Vz/F_obs: 0 (mg/kg)/(ng/ml)
[3]; +Pancreatin (1%)
  SIF Stability (pH 6.8) 0 min: 100%
  SIF Stability (pH 6.8) 60 min: 94%
  SIF Stability (pH 6.8) 120 min: 51%
  SIF Stability (pH 6.8) 240 min: 34%
[3]; pH 6.8, +Pancreatin (1%)
  half-life: 2.37 h
[3]; pH 6.8, −Pancreatin
  half-life: 13.4 h
[3]; −Pancreatin
  SIF Stability (pH 6.8) 0 min: 100%
  SIF Stability (pH 6.8) 60 min: 82%
  SIF Stability (pH 6.8) 120 min: 82%
  SIF Stability (pH 6.8) 240 min: 78%
[4]; +Pepsin (0.32%)
  SGF Stability (pH 1.2) 0 min: 100%
  SGF Stability (pH 1.2) 60 min: 94%
  SGF Stability (pH 1.2) 120 min: 89%
  SGF Stability (pH 1.2) 240 min: 73%
[4]; pH 1.2, +Pepsin (0.32%)
  half-life: 8.62 h
[4]; pH 1.2, −Pepsin
  half-life: 7.17 h
[4]; −Pepsin
  SGF Stability (pH 1.2) 0 min: 100%
  SGF Stability (pH 1.2) 60 min: 84%
  SGF Stability (pH 1.2) 120 min: 78%
  SGF Stability (pH 1.2) 240 min: 67%
[5]
  half-life: 18.1 h
[5]; 0 min
  Plasma Stability (% Parent Remaining) 0 min: 100%
[5]; 60 min
  Plasma Stability (% Parent Remaining) 60 min: 82%
[5]; 120 min
  Plasma Stability (% Parent Remaining) 120 min: 77%
[5]; 240 min
  Plasma Stability (% Parent Remaining) 240 min: 83%

## CCCCCC(=O)NC(Cc1ccc(OP(=O)(O)O)cc1)C(=O)N[C@H](C(=O)NCCCCCC(N)=O)C(C)CC.N.N (some centres unmarked) [Compound A29] (Hexanoyl-[ξpY]-[Ile(3ξ)]-[Ahx]-NH2)
Caco-2 cells; (Papp A-B with inhibitor − without inhibitor)/Papp A-B with inhibitor
  Abs. Quotient: 0.83
Caco-2 cells; +GF120918 (10 μM), 10 μM compound
  Caco-2 Cells Permeability Recovery Rate: 76%
Caco-2 cells; −GF120918, 10 μM compound
  Caco-2 Cells Permeability Recovery Rate: 86%
[2]; [12]
  AUC0-24: 35.9 ± 27.6 ng·h/mL
  AUC0-inf: 48.6 ± 26.5 ng·h/mL
  Cmax: 39.7 ± 74.2 ng/mL
  Tmax (h): 2.1 ± 4^ h
  half-life: 15.7 ± 14.3 h
[2]; Rat, PO, 10 mg/kg equiv., n = 4, analyte: Prodrug
  Tmax: 0 h
[3]; +Pancreatin (1%)
  SIF Stability (pH 6.8) Half-Life (min): Neg.
  SIF Stability (pH 6.8) 0 min: 100%
  SIF Stability (pH 6.8) 60 min: 94%
  SIF Stability (pH 6.8) 120 min: 98%
  SIF Stability (pH 6.8) 240 min: 104%
[3]; −Pancreatin
  SIF Stability (pH 6.8) Half-Life (min): Neg.
  SIF Stability (pH 6.8) 0 min: 100%
  SIF Stability (pH 6.8) 60 min: 96%
  SIF Stability (pH 6.8) 120 min: 97%
  SIF Stability (pH 6.8) 240 min: 103%
[4]; +Pepsin (0.32%)
  SGF Stability (pH 1.2) Half-Life (min): 225.0 min
  SGF Stability (pH 1.2) 0 min: 100%
  SGF Stability (pH 1.2) 60 min: 86%
  SGF Stability (pH 1.2) 120 min: 63%
  SGF Stability (pH 1.2) 240 min: 49%
[4]; −Pepsin
  SGF Stability (pH 1.2) Half-Life (min): Neg.
  SGF Stability (pH 1.2) 0 min: 100%
  SGF Stability (pH 1.2) 60 min: 117%
  SGF Stability (pH 1.2) 120 min: 129%
  SGF Stability (pH 1.2) 240 min: 123%
